Laboratory results: ChEMBL document CHEMBL1201862, “PubChem BioAssay data set” (2004)
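How tested: cells in 96-well plates exposed to compound for 48 hours at five concentrations. The concentration for 50% growth inhibition is given as GI50.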 The source made the active and inactive calls. Rule as the data show it: active = GI50 up to about 1.1 µM and inactive = higher.

Experiments:
Assay in all cases: DTP human tumour cell line panel, 48 h
[1] = tested on: A498
[2] = tested on: A549
[3] = tested on: ACHN
[4] = tested on: CCRF-CEM
[5] = tested on: HOP-92
[6] = tested on: Hs-578T
[7] = tested on: IGROV-1
[8] = tested on: K562
[9] = tested on: MCF7
[10] = tested on: MDA-MB-231
[11] = tested on: MDA-N
[12] = tested on: MOLT-4
[13] = tested on: NCI-H23
[14] = tested on: NCI/ADR-RES
[15] = tested on: RXF 393
[16] = tested on: SF-539
[17] = tested on: SK-MEL-5
[18] = tested on: UACC-257

Measured: GI50

CC(C)C(C)C(O)C(O)C(C)C1CCC2C3COC(=O)C4CC(O)C(O)CC4(C)C3CCC12C (stereo unspecified)
inactive: [1] > 100 µM | [2] 48.9 µM | [3] 25.4 µM | [4] 22.8 µM | [5] 32.8 µM | [6] 78.7 µM | [7] > 100 µM | [8] 39 µM | [9] 56.4 µM | [10] > 100 µM | [11] 56 µM | [12] 27.1 µM | [13] 92.7 µM | [14] > 100 µM | [15] 20.2 µM | [16] > 100 µM | [17] 35 µM | [18] > 100 µM

Cc1cccc(C)c1NC(=S)NC=C(C(N)=O)C(N)=O
inactive: [1] > 100 µM | [2] > 100 µM | [3] > 100 µM | [4] > 100 µM | [5] > 100 µM | [6] > 100 µM | [7] > 100 µM | [8] > 100 µM | [9] > 100 µM | [10] > 100 µM | [11] > 100 µM | [12] > 100 µM | [13] > 100 µM | [14] > 100 µM | [15] > 100 µM | [16] > 100 µM | [17] > 100 µM | [18] > 100 µM

Cc1ccc(S(=O)(=O)NC(=O)NNc2ccc(F)cc2)cc1
inactive: [1] > 100 µM | [2] > 100 µM | [3] > 100 µM | [4] > 100 µM | [5] > 100 µM | [6] > 100 µM | [7] > 100 µM | [9] > 100 µM | [10] > 100 µM | [11] > 100 µM | [12] > 100 µM | [13] > 10 µM | [14] > 44 µM | [15] > 100 µM | [16] > 100 µM | [17] > 100 µM | [18] > 100 µM

CC(C)c1cccc(C(C)C)c1NC(=O)/C(CC(=O)CC(c1ccccc1)c1c(O)c2ccccc2oc1=O)=N/O (stereo unspecified)
inactive: [1] > 100 µM | [2] > 100 µM | [3] > 100 µM | [4] > 100 µM | [5] > 100 µM | [6] > 100 µM | [7] > 100 µM | [8] > 100 µM | [9] > 100 µM | [10] > 100 µM | [11] > 100 µM | [12] > 100 µM | [13] > 100 µM | [14] > 100 µM | [15] > 100 µM | [16] > 100 µM | [17] > 100 µM | [18] > 100 µM
